Experimental data from ChEMBL document CHEMBL1153532, “Design and evaluation of novel biphenyl sulfonamide derivatives with potent histamine H(3) receptor inverse agonist activity” (J Med Chem, 2009).
pKi: −log10 of the molar value. Blank lines part the entries; values can stand above or below the compound they belong to. Activity calls are given as the source filed them. The rule behind the calls is not given here.

Key:
[1] = target: Histamine H3 receptor (Rattus norvegicus, UniProt Q9QYN8); test: Displacement of N-[3H]methylhistamine from histamine H3 receptor in rat cortex membrane; assay type: cell membranes; details: for Ki: read-out: pKi (converted); for pKi: read-out: Ki
Chain of Histamine H3 receptor (Q9QYN8 whole entry): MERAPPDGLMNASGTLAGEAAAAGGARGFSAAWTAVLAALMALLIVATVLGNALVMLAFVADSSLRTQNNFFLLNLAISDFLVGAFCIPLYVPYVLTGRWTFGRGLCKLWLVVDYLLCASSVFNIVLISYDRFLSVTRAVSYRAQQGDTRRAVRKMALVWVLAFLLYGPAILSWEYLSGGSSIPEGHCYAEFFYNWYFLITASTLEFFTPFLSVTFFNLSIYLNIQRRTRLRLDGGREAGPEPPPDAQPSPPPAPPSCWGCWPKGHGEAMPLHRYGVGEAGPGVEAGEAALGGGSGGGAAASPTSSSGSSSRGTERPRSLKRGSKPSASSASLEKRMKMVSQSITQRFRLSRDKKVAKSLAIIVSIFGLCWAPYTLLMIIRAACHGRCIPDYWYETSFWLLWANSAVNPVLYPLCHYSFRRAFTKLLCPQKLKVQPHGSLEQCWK

[2] = target: hERG (KCNH2) (Homo sapiens, UniProt Q12809); test: Inhibition of human ERG at 3 uM by patch clamp assay
Chain of hERG (KCNH2) (Q12809 whole entry): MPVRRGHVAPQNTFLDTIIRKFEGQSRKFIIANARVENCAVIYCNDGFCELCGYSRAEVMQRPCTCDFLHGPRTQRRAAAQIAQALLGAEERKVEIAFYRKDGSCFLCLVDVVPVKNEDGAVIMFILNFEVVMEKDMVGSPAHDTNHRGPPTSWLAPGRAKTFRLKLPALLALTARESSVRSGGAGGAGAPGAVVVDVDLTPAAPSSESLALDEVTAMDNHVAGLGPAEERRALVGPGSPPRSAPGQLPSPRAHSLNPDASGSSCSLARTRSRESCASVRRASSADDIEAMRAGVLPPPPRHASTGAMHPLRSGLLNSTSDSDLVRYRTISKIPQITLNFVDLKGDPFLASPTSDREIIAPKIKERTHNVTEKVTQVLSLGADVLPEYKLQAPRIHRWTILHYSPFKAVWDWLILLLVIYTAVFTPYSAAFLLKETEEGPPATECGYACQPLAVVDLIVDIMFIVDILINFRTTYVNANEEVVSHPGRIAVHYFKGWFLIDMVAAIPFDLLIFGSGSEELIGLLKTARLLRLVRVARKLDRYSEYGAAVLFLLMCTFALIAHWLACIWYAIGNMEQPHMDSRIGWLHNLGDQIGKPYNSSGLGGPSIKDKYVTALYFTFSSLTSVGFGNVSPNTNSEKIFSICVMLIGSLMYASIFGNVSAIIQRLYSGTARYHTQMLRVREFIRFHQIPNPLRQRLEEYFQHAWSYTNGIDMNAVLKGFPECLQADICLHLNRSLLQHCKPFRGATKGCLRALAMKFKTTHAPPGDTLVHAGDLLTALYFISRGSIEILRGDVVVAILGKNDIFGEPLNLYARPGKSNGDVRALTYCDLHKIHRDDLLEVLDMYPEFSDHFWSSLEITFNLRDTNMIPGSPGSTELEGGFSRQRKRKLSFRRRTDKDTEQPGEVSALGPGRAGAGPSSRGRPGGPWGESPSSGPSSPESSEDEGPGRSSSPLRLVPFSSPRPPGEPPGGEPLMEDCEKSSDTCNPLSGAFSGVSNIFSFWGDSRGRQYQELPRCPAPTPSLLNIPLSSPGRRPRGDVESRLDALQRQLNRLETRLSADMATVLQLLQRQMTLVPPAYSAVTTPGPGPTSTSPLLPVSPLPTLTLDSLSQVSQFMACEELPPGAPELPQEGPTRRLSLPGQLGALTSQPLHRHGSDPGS

[3] = Drug level in Sprague-Dawley rat brain at 10 mg/kg, po after 0.5 hrs; assay type: ADME, organism-based; set-up: dose 10 mg/kg, route oral; details: read-out: Drug uptake
[4] = Plasma concentration in Sprague-Dawley rat at 10 mg/kg, po after 0.5 hrs; assay type: ADME, organism-based; set-up: dose 10 mg/kg, route oral
[5] = Tmax in Sprague-Dawley rat at 10 mg/kg, po up to 21 hrs; assay type: ADME, organism-based; set-up: dose 10 mg/kg, route oral; details: in vivo
[6] = Oral bioavailability in Sprague-Dawley rat at 10 mg/kg, po up to 21 hrs; assay type: ADME, organism-based; details: in vivo
[7] = target: Histamine H1 receptor (Homo sapiens) (UniProt P35367); test: Binding affinity to human histamine H1 receptor at 1 uM
Chain of Histamine H1 receptor (Homo sapiens) (P35367 whole entry): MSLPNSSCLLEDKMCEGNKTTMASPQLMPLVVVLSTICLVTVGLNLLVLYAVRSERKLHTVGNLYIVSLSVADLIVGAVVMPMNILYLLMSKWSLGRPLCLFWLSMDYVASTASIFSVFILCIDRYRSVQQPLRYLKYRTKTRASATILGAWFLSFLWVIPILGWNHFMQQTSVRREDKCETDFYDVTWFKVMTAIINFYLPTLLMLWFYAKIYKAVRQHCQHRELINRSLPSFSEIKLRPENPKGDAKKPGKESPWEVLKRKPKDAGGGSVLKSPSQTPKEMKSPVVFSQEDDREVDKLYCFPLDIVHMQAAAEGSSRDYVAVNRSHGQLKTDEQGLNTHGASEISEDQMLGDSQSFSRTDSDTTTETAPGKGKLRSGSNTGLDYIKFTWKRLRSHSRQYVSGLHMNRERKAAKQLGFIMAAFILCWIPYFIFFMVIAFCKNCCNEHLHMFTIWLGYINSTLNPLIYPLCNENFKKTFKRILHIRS

[8] = Half life in Sprague-Dawley rat at 10 mg/kg, po up to 21 hrs; assay type: ADME, organism-based; set-up: dose 10 mg/kg, route oral; details: in vivo
[9] = target: Histamine H2 receptor (Homo sapiens) (UniProt P25021); test: Binding affinity to human histamine H2 receptor at 1 uM
Chain of Histamine H2 receptor (Homo sapiens) (P25021 whole entry): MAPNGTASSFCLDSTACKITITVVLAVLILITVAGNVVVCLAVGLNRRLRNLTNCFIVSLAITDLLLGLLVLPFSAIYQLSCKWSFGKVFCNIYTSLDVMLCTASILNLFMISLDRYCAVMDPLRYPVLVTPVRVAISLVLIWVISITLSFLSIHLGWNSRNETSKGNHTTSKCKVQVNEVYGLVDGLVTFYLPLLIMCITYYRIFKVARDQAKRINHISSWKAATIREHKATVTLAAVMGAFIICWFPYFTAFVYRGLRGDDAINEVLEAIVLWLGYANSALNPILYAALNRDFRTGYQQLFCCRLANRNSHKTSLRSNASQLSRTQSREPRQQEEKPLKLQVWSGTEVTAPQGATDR

[10] = target: Histamine H4 receptor (Homo sapiens) (UniProt Q9H3N8); test: Binding affinity to human histamine H4 receptor at 1 uM
[11] = system: Rattus norvegicus; test: Inhibition of (R)-alpha-methyl histamine induced drinking in Sprague-Dawley rat dipsogenia model at 1 mg/kg, po administered 0.5 hrs before (R)-alpha-methyl histamine challenge; assay type: functional
[12] = system: Rattus norvegicus; test: Inhibition of (R)-alpha-methyl histamine induced drinking in Sprague-Dawley rat dipsogenia model at 0.3 mg/kg, po administered 0.5 hrs before (R)-alpha-methyl histamine challenge; assay type: functional
[13] = in vivo; details: Sprague-Dawley, rat, brain/plasma, po, 10 mg/kg
[14] = system: Rattus norvegicus; test: Inhibition of (R)-alpha-methyl histamine induced drinking in Sprague-Dawley rat dipsogenia model at 3 mg/kg, po administered 0.5 hrs before (R)-alpha-methyl histamine challenge; assay type: functional
[15] = system: Rattus norvegicus; test: Increase in wakefulness in Sprague-Dawley rat at 0.1 mg/kg, po administered 4 hrs after lights out condition measured over 5 hrs period by polysomnographic method; assay type: functional, organism-based; set-up: dose 0.1 mg/kg
[16] = system: Brain; test: Drug level in Sprague-Dawley rat brain assessed as 4'-[2-((R)-2-Methyl-pyrrolidin-1-yl)-ethyl]-biphenyl-4-sulfonic Acid Amide level at 1 mg/kg, po after 3.5 hrs; assay type: ADME, organism-based; set-up: dose 1 mg/kg, route oral; details: in vivo
[17] = system: Rattus norvegicus; test: Increase in wakefulness in Sprague-Dawley rat at 1 mg/kg, po administered 4 hrs after lights out condition measured over 5 hrs period by polysomnographic method; assay type: functional

Structure (SMILES): CC(C)NS(=O)(=O)c1cccc(-c2ccc(CCN3CCC[C@H]3C)cc2)c1
Ki [1]: 7.94 nM

Structure (SMILES): CCNS(=O)(=O)c1cccc(-c2ccc(CCN3CCC[C@H]3C)cc2)c1
Ki [1]: 11 nM

Structure (SMILES): CCN(CC)S(=O)(=O)c1cccc(-c2ccc(CCN3CCC[C@H]3C)cc2)c1
Ki [1]: 16.2 nM

Structure (SMILES): C[C@@H]1CCCN1CCc1ccc(-c2ccc(S(=O)(=O)NCC3CC3)cc2)cc1
inhibition at 3 µM [2]: 54%

Structure (SMILES): C[C@@H]1CCCN1CCc1ccc(-c2cccc(S(=O)(=O)N3CCCCC3)c2)cc1
Ki [1]: 12.6 nM

Structure (SMILES): CCN(CC)S(=O)(=O)c1ccc(-c2ccc(CCN3CCC[C@H]3C)cc2)cc1
Ki [1]: 1.41 nM

Structure (SMILES): C[C@@H]1CCCN1CCc1ccc(-c2ccc(S(=O)(=O)NC3CCC3)cc2)cc1
inhibition at 3 µM [2]: 79%

Structure (SMILES): C[C@@H]1CCCN1CCc1ccc(-c2ccc(S(=O)(=O)N3CCOCC3)cc2)cc1
concentration at 0.5 h [3]: 320 ng/mL
concentration at 0.5 h [4]: 160 ng/mL
Tmax [5]: 1.7 h
bioavailability [6]: 12%
Activity [7]: < 10%
half-life [8]: 1.2 h
Activity [9]: < 10%
pKi [1]: 8.70
Activity [10]: < 10%
inhibition in vivo at 1 mg/kg [11]: 99.8%
inhibition in vivo at 0.3 mg/kg [12]: 34.1%

Structure (SMILES): C[C@@H]1CCCN1CCc1ccc(-c2ccc(S(=O)(=O)NC3CCOCC3)cc2)cc1
concentration at 0.5 h [3]: 140 ng/mL
concentration at 0.5 h [4]: 440 ng/mL
Tmax [5]: 0.8 h
bioavailability [6]: 62%
Activity [7]: < 10%
half-life [8]: 2.3 h
Activity [9]: < 10%
pKi [1]: 8.70
Activity [10]: < 10%
Kp at 0.5 h [13]: 0.32
inhibition in vivo at 1 mg/kg [11]: 77.5%
inhibition in vivo at 3 mg/kg [14]: 85.1%

Structure (SMILES): CCNS(=O)(=O)c1ccc(-c2ccc(CCN3CCC[C@H]3C)cc2)cc1
concentration at 0.5 h [3]: 3600 ng/mL
concentration at 0.5 h [4]: 1600 ng/mL
Tmax [5]: 0.5 h
bioavailability [6]: 93%
Activity [7]: < 10%
half-life [8]: 1.8 h
Activity [9]: < 10%
Activity [10]: < 10%
Activity [15]: inactive
Kp at 0.5 h [13]: 2.3
inhibition in vivo at 1 mg/kg [11]: 77.6%
Drug uptake [16]: 246 ng/mL
Activity [17]: 40%
inhibition in vivo at 3 mg/kg [14]: 69.6%

Structure (SMILES): COCCNS(=O)(=O)c1ccc(-c2ccc(CCN3CCC[C@H]3C)cc2)cc1
concentration at 0.5 h [3]: 8700 ng/mL
concentration at 0.5 h [4]: 11200 ng/mL
Tmax [5]: 0.2 h
bioavailability [6]: 22%
half-life [8]: 2.6 h
pKi [1]: 8.52
inhibition at 3 µM [2]: 29%
Kp at 0.5 h [13]: 0.78
inhibition in vivo at 1 mg/kg [11]: 40.7%
inhibition in vivo at 3 mg/kg [14]: 96.7%

Structure (SMILES): C[C@@H]1CCCN1CCc1ccc(-c2ccc(S(=O)(=O)NC(C)(C)CO)cc2)cc1
inhibition at 3 µM [2]: 37%

Second part, led by results:

Ki [1]: 0.933 nM
Structure (SMILES): C[C@@H]1CCCN1CCc1ccc(-c2ccc(S(=O)(=O)N3CCS(=O)(=O)CC3)cc2)cc1

Structure (SMILES): C[C@@H]1CCCN1CCc1ccc(-c2ccc(S(=O)(=O)NCc3ccccc3)cc2)cc1
inhibition at 3 µM [2]: 84%

Ki [1]: 2.45 nM
Structure (SMILES): C[C@@H]1CCCN1CCc1ccc(-c2ccc(S(=O)(=O)N3CC[C@H](O)C3)cc2)cc1

Ki [1]: 0.182 nM
Structure (SMILES): C[C@@H]1CCCN1CCc1ccc(-c2ccc(S(=O)(=O)NCc3ccncc3)cc2)cc1
inhibition at 3 µM [2]: 27%

Ki [1]: 0.501 nM
Structure (SMILES): C[C@@H]1CCCN1CCc1ccc(-c2ccc(S(=O)(=O)N3Cc4ccccc4C3)cc2)cc1

concentration at 0.5 h [3]: 800 ng/g
Structure (SMILES): C[C@@H]1CCCN1CCc1ccc(-c2ccc(S(N)(=O)=O)cc2)cc1
